We go through 21 compounds from patent US4931450A, “Amino acid derivatives” (Novo Industri A/S, priority 1986, dated 1990).

One experiment relates to GABA-uptake. In words: In vitro GABA-uptake inhibition, essentially as described by Fjalland, 3H-GABA as substrate. Format: biochemical.
For experiment [1], the system named is DBA/2 mice (convulsions induced by loud noise; Rotarod). Put plainly: Rotarod test versus convulsions induced by loud noise in DBA/2 mice (ratio ED50 Rotarod/ED50 tonic convulsions). In kind it is in vivo, male DBA/2 mice. Conditions: i.p., Rotarod test 25 min after injection, then 14 kHz tone at 111 dB for 30 sec. Here is the method:
The convulsions induced by loud noise in the DBA/2 strain of mice is regarded as a reliable model for evaluating anti-epileptic drug effects, cf. E. N. Petersen et al.: Psychopharmacol. 83 (1984), 240, and A. G. Chapman et al.: Arzmeim.Forsch. 10 (1984), 1261. The Rotarod and Traction tests were used to evaluate the sedative properties of the test drugs.
Male DBA/2 mice (8±1 g) were used in all experiments. The animals were pretrained on the Rotarod (6 rpm; rod diameter 2.5 cm) for 1 min. The compounds tested were injected intra-peritoneally. Twenty-five min, later the animals underwent a 2 min. test on the Rotarod. The number of failures to stay on the rod was counted. An error rate higher than 10 was assigned the maximum score of 10. Immediately after the Rotarod test, the animals were tested in a Traction test, cf. Psychopharmacol. above. In this test, the animal was required to maintain grasp on a thin rod (diameter 2.5 mm) with the forepaws for five sec. and, within this period of time, to show a traction response (grasping onto the rod with one of the hindlegs). The performance on the test was based on the absence or presence of the traction response with the 5 sec. test period. Finally, after the Traction test, the animals were individually placed in a chamber in which they were exposed for 30 sec. to a 14 kHz sinus tone at 111 dB. During this period of time, the following behaviours were noted: "wild running", clonic convulsions and death.
The compounds tested were dissolved in distilled water or suspended in 5% chremophore. The injection volume was 0.2 ml/mouse.
In table 2, below, the ratio ED50 Rotarod/ED50 tonic convulsions is given for the compounds tested. NO-05-0340 is R-N-(4-(2-methylphenyl)-4-(3-methyl-2-thienyl)but-3-en-1-yl)nipecotic acid and NO-05-0356 is R-N-(4-(N-methylpyrrol-2-yl)-4-phenylbut-3-en-1-yl)nipecotic acid.

Another experiment has as its system GABA uptake. To be noted: orally active; cited from earlier work.
Setting [2] is: 3H-GABA substrate, two separate experiments, 3-5 concentrations of test compound, read-out: IC50.
[3] abbreviates: R3 nipecotic acid, read-out: in vitro test value.

Where a name gives a salt, the structure may show the parent alone. Read-outs that look alike come from different tables or passages of the source.

Procedure for GABA-uptake: GABA-uptake inhibition was measured essentially as described by Fjalland (Acta Pharmacol. et. Toxicol. (1978), 42, 73-76) using 25 mM of 3H-GABA as a substrate.

As for `Cc1ccsc1C(=CCCN1CCC[C@@H](C(=O)O)C1)c1cccc(Cl)c1` (mixture of isomers), the IC50 in the experiment on GABA-uptake (setting [2]) came out at 124 nM.

For the compound `O=C(O)C1=CCCN(CCC=C(c2ccccc2)c2cccs2)C1` (mixture of isomers) [phenyl, thien-2-yl, guvacine, (E/Z), reference compound], the IC50 in the experiment on GABA-uptake (setting [2]) is 217 nM.

`O=C(O)[C@@H]1CCCN(CCC=C(c2ccccc2)c2cccs2)C1` (mixture of isomers) [reference compound]: in the experiment with GABA-uptake (setting [2]), the IC50 was determined as 236 nM.

For the compound `O=C(O)C1CCCN(CCC=C(c2ccccc2)c2cccs2)C1` (racemic) [reference compound], the IC50 in the experiment with GABA-uptake (setting [2]) and with GABA-uptake (setting [3]) was 470 nM in each case.

As to `Cc1ccc(C(=CCCN2CCC[C@@H](C(=O)O)C2)c2sccc2C)c(C)c1` [Example 10, R-N-(4-(2,4-dimethylphenyl)-4-(3-methyl-2-thienyl)but-3-en-1-yl)nipecotic acid hydrochloride], the IC50 with GABA-uptake (setting [2]) was 190 nM.

With `CCCn1cccc1C(=CCCN1CCC[C@@H](C(=O)O)C1)c1ccccc1C` [Example 14], in the experiment with GABA-uptake (setting [2]), the IC50 turned out to be 85 nM.

As to `Cc1ccccc1C(=CCCN1CCC=C(C(=O)O)C1)c1sccc1C` [Example 15], the IC50 in the experiment with GABA-uptake (setting [2]) stood at 117 nM.

Regarding `Cc1cc(Cl)ccc1C(=CCCN1CCC[C@@H](C(=O)O)C1)c1sccc1C` [Example 16], the IC50 with GABA-uptake (setting [2]) turned out to be 89 nM.

Consider `COc1cccc(C(=CCCN2CCC[C@@H](C(=O)O)C2)c2sccc2C)c1` [Example 18], for which, in the experiment on GABA-uptake (setting [2]), the IC50 was determined as 56 nM.

Consider `Cc1ccsc1C(=CCCN1CCC[C@@H](C(=O)O)C1)c1ccccc1F` [Example 24], for which the IC50 with GABA-uptake (setting [2]) was 217 nM.

For `Cc1ccsc1C(=CCCN1CCC[C@@H](C(=O)O)C1)c1cccc(Cl)c1C` [Example 49], in the experiment on GABA-uptake (setting [2]), the IC50 was determined as 104 nM.

Turning to `Cc1cc(Cl)ccc1C(=CCCN1CCC[C@@H](C(=O)O)C1)c1cccn1C` [Example 57], the IC50 in the experiment on GABA-uptake (setting [2]) worked out at 148 nM.

For `CCn1cccc1C(=CCCN1CCC[C@@H](C(=O)O)C1)c1ccccc1C` [Example 58], the IC50 in the experiment with GABA-uptake (setting [2]) was 49 nM.

In the case of `CCn1cccc1C(=CCCN1CCC=C(C(=O)O)C1)c1ccccc1` [Example 59], the IC50 with GABA-uptake (setting [2]) was determined as 162 nM.

`Cc1ccccc1C(=CCCN1CCC[C@@H](C(=O)O)C1)c1sccc1C` [NO-05-0340, R-N-(4-(2-Methylphenyl)-4-(3-methyl-2-thienyl)but-3-en-1-yl)nipecotic acid]: in experiment [1], the “ratio ED50 Rotarod/ED50 tonic convulsions” value came out at 8. Moreover, the IC50 in the experiment on GABA-uptake (setting [2]) and in the experiment with GABA-uptake (setting [3]) was 74 nM throughout.

In the case of `Cl.Cn1cccc1C(=CCCN1CCC[C@@H](C(=O)O)C1)c1ccccc1` [NO-05-0356, R-N-(4-(N-Methylpyrrol-2-yl)-4-phenylbut-3-en-1-yl)nipecotic acid hydrochloride], the “ratio ED50 Rotarod/ED50 tonic convulsions” value in experiment [1] stood at 21. Further, in the experiment on GABA-uptake (setting [2]), the IC50 stood at 68 nM.

With `Cn1cccc1C(=CCCN1CCC=C(C(=O)O)C1)c1ccccc1` [NO-05-0387, N-(4-(N-Methylpyrrol-2-yl)-4-phenylbut-3-en-1-yl)guvacine hydrochloride], in the experiment on GABA-uptake (setting [2]), the IC50 came to 126 nM.

With `O=C(O)C1CCCN(CCC=C(c2ccccc2)c2ccccc2)C1` (stereo not drawn) [SK&F 89976A, N-(4,4-diphenyl-3-butenyl)nipicotic acid, reference compound], the “ratio ED50 Rotarod/ED50 tonic convulsions” value in experiment [1] came out at 5. Moreover, in the experiment on GABA uptake, the “GABA uptake inhibition, oral activity” value is “orally active inhibitors of GABA uptake”.

Take `O=C(O)C1=CCCN(CCC=C(c2ccccc2)c2ccccc2)C1` [SK&F 100330A, N-(4,4-diphenyl-3-butenyl)guvacine]: in the experiment with GABA uptake, the “GABA uptake inhibition, oral activity” value is given as “orally active inhibitors of GABA uptake”.

Take `O=C(O)CC1CCN(CCC=C(c2ccccc2)c2ccccc2)C1` (stereo not drawn) [SK&F 100561, N-(4,4-diphenyl-3-butenyl)-β-homoproline, reference compound]: in experiment [1], the “ratio ED50 Rotarod/ED50 tonic convulsions” value stood at 7. In addition, the “GABA uptake inhibition, oral activity” value in the experiment on GABA uptake was “orally active inhibitors of GABA uptake”.

As to `O=C(O)C1CCCN(CCC=C(c2ccccc2)c2cccs2)C1` (stereo not drawn) [SK&F 100604J, N-(4-sphenyl-4-(2-thienyl)-3-butenyl)nipecotic acid], the “GABA uptake inhibition, oral activity” value in the experiment with GABA uptake is given as “orally active inhibitors of GABA uptake”.
